Data published in patent US10870641B2, “Pyridazinones as PARP7 inhibitors” (Ribon Therapeutics Inc., priority 2018, dated 2020).
pIC50: −log10 of the molar value.

How the values were obtained:
[1] = target: TIPARP (PARP7) (Homo sapiens (Human), UniProt Q7Z3E1); experiment: Enzymatic assay for inhibition of PARP7: displacement of biotinylated Probe A (TR-FRET); format: binding; conditions: TR-FRET displacement of Probe A from TIPARP
Description: 20 nL of a dose response curve of each test compound was spotted in black 384-well polystyrene proxiplates (Perkin Elmer) using a Mosquito (TTP Labtech). […] Reactions were incubated at 25° C. for an additional 30 min, then read on an Envision plate reader equipped with a LANCE/DELFIA top mirror (Perkin Elmer) using excitation of 320 nm and emission of 615 nm and […] with a 90 μs delay. The ratio of the 665/615 nm emission were calculated for each well to determine the amount of complex of TIPARP and Probe A in each well. […] The Hill Coefficient is normally allowed to float but may also be fixed at 1 in a 3-parameter fit. Y is the % inhibition and X is the compound concentration.

[2] = tested on: NCI-H1373 lung cancer cells; experiment: Inhibition of cancer cell growth in NCI-H1373 cells (FIG. 2); format: cell-based, human
[3] = tested on: 4T1-luc2-1A4 cells; experiment: Inhibition of tumor growth, 4T1 murine syngeneic model, subcutaneous dosing; format: in vivo; conditions: 4T1 orthotopic syngeneic, BALB/c mice; Compound 98 500 mg/kg S.C. QD, Compound 93A 100 mg/kg S.C. BID, 21 days
Excerpt: (§1) Example G: Inhibition of Tumor Growth by Treatment with PARP7 Inhibitors
For the 4T1 study female BALB/c mice were inoculated orthotopically in the mammary fat pad with 4T1-luc2-1A4 cells for tumor development. Eight days after tumor inoculation, 45 mice with tumor size ranging from 63-88 mm^3 (average tumor size 67 mm^3) were selected and assigned into 3 groups using stratified randomization with 15 mice in each group based upon their tumor volumes. The treatments were started from the next day post randomization (defined randomization day as D0) and were treated with vehicle (0.5% methylcellulose+0.2% Tween 80), Compound 98 (500 mg/kg S.C. QD*21 days), Compound 93A (100 mg/kg S.C. BID*21 days) respectively. The tumor sizes were measured three times per week during the treatment. The entire study was terminated on D20.
(§2) Mean tumor volume and SEM for both studies are plotted. Statistical significance, calculated using two-tailed unpaired t-tests in which each treatment group was compared to vehicle control, is indicated by an asterisk. Statistics were performed on groups with less than 20% animal loss (D21 for CT26, D17 for 4T1).

[4] = tested on: CT26 cells; experiment: Inhibition of tumor growth, CT26 murine syngeneic model, subcutaneous dosing; format: in vivo; conditions: BALB/c mice, Compound 98 500 mg/kg S.C. QD, Compound 93A 100 mg/kg S.C. BID, 21 days
Excerpt: as §1
For the CT26 study BALB/c mice were inoculated subcutaneously at the right flank with CT26 cells for tumor development. Four days after tumor inoculation, 36 mice with tumor size ranging from 40-55 mm^3 (average tumor size 47 mm^3) were selected and assigned into 3 groups using stratified randomization with 12 mice in each group based upon their tumor volumes. The treatments were started from the next day post randomization (defined randomization day as day 0) and were treated with vehicle (0.5% methylcellulose+0.2% Tween 80), Compound 98 (500 mg/kg S.C. QD*21 days), Compound 93A (100 mg/kg S.C. BID*21 days) respectively. The tumor sizes were measured three times per week during the treatment. The entire study was terminated on day 21.
as §2

[5] = tested on: CT26 mouse colon cancer cells; experiment: Induction of interferon-beta levels in CT26 cells in the presence of STING agonist DMXAA (FIG. 3); format: cell-based
[6] = tested on: RAW264.7 mouse macrophages; experiment: Induction of interferon-beta levels in RAW264.7 macrophages in the presence of STING agonist DMXAA (FIG. 3); format: cell-based
[7] = target: PARP7 (Homo sapiens (Human), UniProt Q7Z3E1); experiment: PARP7 inhibition potency (Table A-1); format: binding; conditions: comparison of separated isomers; see Table A-1
Sequence of PARP7 (Q7Z3E1 whole entry): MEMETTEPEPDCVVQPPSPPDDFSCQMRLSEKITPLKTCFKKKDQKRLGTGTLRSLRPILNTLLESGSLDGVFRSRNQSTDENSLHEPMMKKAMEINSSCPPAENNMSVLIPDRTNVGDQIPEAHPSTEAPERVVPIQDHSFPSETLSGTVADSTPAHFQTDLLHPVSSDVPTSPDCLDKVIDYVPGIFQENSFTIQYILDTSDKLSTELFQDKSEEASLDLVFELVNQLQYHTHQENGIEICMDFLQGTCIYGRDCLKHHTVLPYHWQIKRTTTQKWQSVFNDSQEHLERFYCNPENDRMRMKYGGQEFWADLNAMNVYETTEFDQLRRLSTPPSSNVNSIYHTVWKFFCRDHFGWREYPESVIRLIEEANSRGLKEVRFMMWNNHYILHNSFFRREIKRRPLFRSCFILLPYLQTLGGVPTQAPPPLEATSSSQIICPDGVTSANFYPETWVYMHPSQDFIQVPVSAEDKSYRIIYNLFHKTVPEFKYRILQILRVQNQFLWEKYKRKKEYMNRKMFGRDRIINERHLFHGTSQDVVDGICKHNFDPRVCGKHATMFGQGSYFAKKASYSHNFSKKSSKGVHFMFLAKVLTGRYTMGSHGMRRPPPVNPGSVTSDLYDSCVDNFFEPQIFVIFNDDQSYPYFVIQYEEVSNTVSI

Sequence of TIPARP (PARP7) (Q7Z3E1 whole entry): as above

Compound | pIC50 [1] | further results
N#Cc1ccc(N2CCN(C(=O)c3ccc(OC[C@H]4c5ccccc5CN4c4cn[nH]c(=O)c4C(F)(F)F)cc3)CC2)nc1 [Example 35B, 6-[4-[(4-[[(1R)-2-[6-oxo-5-(trifluoromethyl)-1,6-dihydropyridazin-4-yl]-2,3-dihydro-1H-isoindol-1-yl]methoxy]phenyl)carbonyl]piperazin-1-yl]pyridine-3-carbonitrile] | 6.00 to 7.00 | –
N#Cc1ccc(N2CCN(C(=O)c3ccnc(OC[C@H]4c5ccccc5CN4c4cn[nH]c(=O)c4C(F)(F)F)c3)CC2)nc1 [Example 36A, 6-[4-[(2-[[(1R)-2-[6-oxo-5-(trifluoromethyl)-1,6-dihydropyridazin-4-yl]-2,3-dihydro-1H-isoindol-1-yl]methoxy]pyridin-4-yl)carbonyl]piperazin-1-yl]pyridine-3-carbonitrile] | ≤ 6.00 | –
N#Cc1ccc(N2CCN(C(=O)c3ccnc(OC[C@@H]4c5ccccc5CN4c4cn[nH]c(=O)c4C(F)(F)F)n3)CC2)nc1 [Example 38A, 6-[4-[(2-[[(1S)-2-[6-Oxo-5-(trifluoromethyl)-1,6-dihydropyridazin-4-yl]-2,3-dihydro-1H-isoindol-1-yl]methoxy]pyrimidin-4-yl)carbonyl]piperazin-1-yl]pyridine-3-carbonitrile] | > 7.00 | –
N#Cc1ccc(N2CCN(C(=O)c3cccc(OCCOc4cccc5c4CN(c4cn[nH]c(=O)c4C(F)(F)F)C5)c3)CC2)nc1 [Example 39, 6-[4-([3-[2-([2-[6-Oxo-5-(trifluoromethyl)-1,6-dihydropyridazin-4-yl]-2,3-dihydro-1H-isoindol-4-yl]oxy)ethoxy]phenyl]carbonyl)piperazin-1-yl]pyridine-3-carbonitrile] | – | growth of NCI-H1373 lung cancer cells [2]: dose-dependent decrease in growth
N#Cc1ccc(N2CCN(C(=O)c3cncc(OC[C@H]4c5ccccc5CN4c4cn[nH]c(=O)c4C(F)(F)F)n3)CC2)nc1 [Example 72B, 6-[4-[(6-[[(1R)-2-[6-oxo-5-(trifluoromethyl)-1,6-dihydropyridazin-4-yl]-2,3-dihydro-1H-isoindol-1-yl]methoxy]pyrazin-2-yl)carbonyl]piperazin-1-yl]pyridine-3-carbonitrile] | > 7.00 | –
O=C(COC[C@@H]1CCCN1c1cn[nH]c(=O)c1C(F)(F)F)N[C@H]1CC[C@H](Nc2ccccn2)CC1 [Example 80A, 2-[[(2S)-1-[6-oxo-5-(trifluoromethyl)-1,6-dihydropyridazin-4-yl]pyrrolidin-2-yl]methoxy]-N-[(1r,4r)-4-[(pyridin-2-yl)amino]cyclohexyl]acetamide] | 6.00 to 7.00 | –
N#Cc1ccc(N2CCN(C(=O)CCOC[C@@H]3c4ccccc4CN3c3cn[nH]c(=O)c3C(F)(F)F)CC2)nc1 [Example 93A, 6-[4-(3-[[(1S)-2-[6-oxo-5-(trifluoromethyl)-1,6-dihydropyridazin-4-yl]-2,3-dihydro-1H-isoindol-1-yl]methoxy]propanoyl)piperazin-1-yl]pyridine-3-carbonitrile] | – | tumor growth [3]: significantly reduce tumor growth; tumor growth [4]: significantly reduce tumor growth; growth of NCI-H1373 lung cancer cells [2]: dose-dependent decrease in growth
N#Cc1ccc(N2CCN(C(=O)CCOC[C@@H]3CCCN3c3cn[nH]c(=O)c3C(F)(F)F)CC2)nc1 [Example 98, 6-[4-(3-[[(2S)-1-[6-Oxo-5-(trifluoromethyl)-1,6-dihydropyridazin-4-yl]pyrrolidin-2-yl]methoxy]propanoyl)piperazin-1-yl]pyridine-3-carbonitrile] | – | tumor growth [3]: significantly reduce tumor growth; interferon-beta (IFN-β) levels [5]: induction of interferon-beta (IFN-β) levels; interferon-beta (IFN-β) levels [6]: induction of interferon-beta (IFN-β) levels; tumor growth [4]: significantly reduce tumor growth; growth of NCI-H1373 lung cancer cells [2]: dose-dependent decrease in growth
N#Cc1ccc(N2CCC3C2CCN3C(=O)CCOC[C@@H]2CCCN2c2cn[nH]c(=O)c2C(F)(F)F)nc1 (stereo partly drawn) [Example 110, 6-[4-(3-[[(2S)-1-[6-oxo-5-(trifluoromethyl)-1,6-dihydropyridazin-4-yl]pyrrolidin-2-yl]methoxy]propanoyl)-octahydropyrrolo[3,2-b]pyrrol-1-yl]pyridine-3-carbonitrile] | > 7.00 | –
N#Cc1ccc(N2CCN(C(=O)C[C@H]3CC[C@@H]([C@@H]4CCCN4c4cn[nH]c(=O)c4C(F)(F)F)O3)CC2)nc1 [Example 141B, 6-(4-[2-[(2R,5S)-5-[(2S)-1-[6-oxo-5-(trifluoromethyl)-1,6-dihydropyridazin-4-yl]pyrrolidin-2-yl]oxolan-2-yl]acetyl]piperazin-1-yl)pyridine-3-carbonitrile] | – | relative potency of the enantiomers [7]: more potent enantiomer
N#Cc1ccc(N2CCN(C(=O)CNCC[C@H]3c4ccccc4CN3c3cn[nH]c(=O)c3C(F)(F)F)CC2)nc1 [Example 144A, 6-[4-[2-([2-[(1S)-2-[6-oxo-5-(trifluoromethyl)-1,6-dihydropyridazin-4-yl]-2,3-dihydro-1H-isoindol-1-yl]ethyl]amino)acetyl]piperazin-1-yl]pyridine-3-carbonitrile] | > 7.00 | –
O=C(CCOCCNc1cn[nH]c(=O)c1C(F)(F)F)N1CCN(c2ccc(Cl)cn2)CC1 [Example 506, 5-[(2-[3-[4-(5-Chloropyridin-2-yl)piperazin-1-yl]-3-oxopropoxy]ethyl)amino]-4-(trifluoromethyl)-2,3-dihydropyridazin-3-one] | > 7.00 | –
CC(C)(COCCC(=O)N1CCN(c2ccc(C#N)cn2)CC1)Nc1cn[nH]c(=O)c1C(F)(F)F [Example 519, 6-[4-[3-(2-Methyl-2-[[6-oxo-5-(trifluoromethyl)-1,6-dihydropyridazin-4-yl]amino]propoxy)propanoyl]piperazin-1-yl]pyridine-3-carbonitrile] | > 7.00 | –
O=C(CCOCCOc1cn[nH]c(=O)c1Cl)N1CCN(c2ccc(Cl)cn2)CC1 [Example 523, 4-Chloro-5-(2-[3-[4-(5-chloropyridin-2-yl)piperazin-1-yl]-3-oxopropoxy]ethoxy)-2,3-dihydropyridazin-3-one] | > 7.00 | –
N#Cc1ccc(N2CCN(C(=O)CCO[C@H]3Cc4ccccc4[C@@H]3Nc3cn[nH]c(=O)c3C(F)(F)F)CC2)nc1 [Example 537A] | ≤ 6.00 | –
COC[C@@H](COc1cn[nH]c(=O)c1C(F)(F)F)OCCC(=O)N1CCN(c2ncc(Cl)cn2)CC1 [Example 560A, 5-[(2S)-2-[3-[4-(5-chloropyrimidin-2-yl)piperazin-1-yl]-3-oxopropoxy]-3-methoxypropoxy]-4-(trifluoromethyl)-2,3-dihydropyridazin-3-one] | > 7.00 | –
COC[C@H](COc1cn[nH]c(=O)c1C(F)(F)F)OCCC(=O)N1CCN(c2ncc(Cl)cn2)CC1 [Example 560B, 5-[(2R)-2-[3-[4-(5-chloropyrimidin-2-yl)piperazin-1-yl]-3-oxopropoxy]-3-methoxypropoxy]-4-(trifluoromethyl)-2,3-dihydropyridazin-3-one] | 6.00 to 7.00 | –
